Assays:
U-87MG cells [1] = experiment: Cell migration / wound-healing assay; format: cell-based, human; conditions: 20 μM peptide, 24 h, untreated cells 64%
Description: color was read in a spectrophotometer at 680 nm. A standard curve was obtained using D-glucose (0–20 µg) subjected to anthrone in a sulfuric acid treatment, as described above.
Lysosomal vacuolation observed with acridine orange (AO) staining
(§1) U-87MG cells were treated with D-Δ(1-18)N-Ter-Antp peptide in serum-free DMEM media for 6 h at 37℃, incubated with acridine orange (1 μg/ml) for 15 min, visualized by fluorescence microscopy (Olympus LX2 - KSP, Tokyo, Japan), and images were captured with a CCD camera. About 200 cells were counted for each […]
Cell migration assay/wound-healing assay
U-87MG cells were seeded in 12-well plates and cultured. When reaching around 90% confluence, a straight scratch was mechanically made with a sterile 10-µl pipette tip. The cells were treated with various concentrations of D-Δ(1-18)N-Ter-Antp peptide in serum-free DMEM media for the indicated time points. The images of the wounds were captured at different time points using a digital camera mounted on a microscope to follow the position of the migrating front at defined times. […]
Summary of the peptide concentrations (µM) required for half-maximal cell death activity (IC50) in various cancer cell lines. […] Cell death was determined by PI staining and FACS analysis. […]

U-87MG cells [2] = experiment: Acridine orange (AO) staining of acidic vesicles; format: cell-based, human; conditions: 6 h, serum-free DMEM
Description: Figure 7 D-Δ(1-18)-N-Ter-Antp peptide induced vesicle/particle formation. U-87MG cells were treated for 6 h with the indicated concentrations of D-Δ(1-18)N-Ter-Antp peptide in serum-free DMEM. (A) Cells were visualized for vesicle formation under a light microscope. Red circles indicate vesicles/particles. The images were captured at 40× and two folds enlargement is shown. (B,C) Cells were stained with acridine orange (AO). Arrows indicate red/orange stained endosomal/lysosomal vesicles (B). Scale bars were 20 μm. Vesicles/particles are indicated by violet arrows. Quantification of AO staining intensity (C). (D) Cells were stained with anti-vinculin antibodies, followed by secondary anti-mouse-cy3 antibodies. […] (F) U-87MG cells were treated with various concentrations of D-Δ(1-18)N-Ter-Antp peptide for the indicated time and subjected to Oil Red O staining and quantification as described in the Supplementary Data. […]
color was read in a spectrophotometer at 680 nm. […]
as §1

19-FTKGYGFGL-26- RQIKIWFQNRRMKWKK [D-Δ(1-18)N-Ter-Antp]
Gap closed in wound-healing assay (U-87MG cells [1]): 17% | Increase in orange color (AO accumulation in acidic vesicles) (U-87MG cells [2]): more than 3 fold
